{
  "source": "paper PMC2010087",
  "about": "“Cytotoxic and clastogenic effects of soluble chromium compounds on mammalian cell cultures” (British Journal of Cancer, 1979)",
  "key": {"CHO cells [1]": {"system": "CHO cells", "conditions": "30 h, 1.0 ug/ml Cr6+", "method": "(§1) MATERIALS AND METHODS Cells.-Cultures of the established pseudo- diploid BHK21 Syrian hamster fibroblast line, and of the established pseudodiploid CHO Chinese hamster ovary fibroblast line were grown at 37?C as monolayers, in Eagle's minimal essential medium supplemented with 10% calf serum. Cultures in glass Petri dishes were maintained in a humidified 5% C02 atmosphere. […] Cell growth was estimated on the basis of the nucleic-acid content (RNA+ DNA) of each culture, deter- mined 5 days after seeding, when controls became confluent. To this purpose nucleotides and nucleic acids were sequentially extracted by differential hydrolyses with perchloric acid (PCA): soluble nucleotides of the intracellular pool were extracted with 5% PCA at 4?C for 30 min, RNA was hydrolysed with 10%/ PCA at 37?C for 1 h, and DNA was hydrolysed with 10% PCA at 70?C for 2 h. Soluble nucleotides and RNA were measured by UV absorption at 260 nm, DNA was measured at 268 nm, with a Hitachi 200-20 double-beam spectrophotometer. In order to label nucleic acids, the cultures were incu- bated with tritiated nucleosides (Radio- chemical Centre, Amersham, England): thy- midine-6-H3 ([3H]-TdR; 2 Ci/mM) and uridine-5-H3 ([3H]-UR; 2-5 Ci/mM) were used at the concentration of 2 µCi/ml. After labelling, nucleotides and nucleic acids were extracted and determined as above, and the radioactivity of liquid samples (0-5 ml) of the different fractions was counted in a Packard Tri-Carb 2425 scintillation counter, using 10 ml of Bray's solution. As stated else- where (Levis et al., 1978a, b) the extraction procedure with PCA allows both quantitative determinations and radioactivity counting of different fractions (soluble nucleotides, RNA and DNA) obtained from the same culture. […] The medium was not changed until the 8th day, when the plates were stained with acetic gentian violet, and scored for survivors. All colonies visible to the naked eye were counted as survivors. Chromosome preparations.-Suspensions of CHO cells were prepared by trypsinization of log-phase cultures and diluted with growth medium in 100mm Petri plates. Each plate received about 8 x 10^5 cells in 10 ml of medium, which was changed 24 h after seeding. At this time 3 x 10^-5 M bromodeoxyuridine (BUdR, Sigma, St Louis, Mo., U.S.A.) was added and the cells were allowed to incor- porate the analogue for two division cycles (30 h). […] The medium was not changed until the cells were collected 30 h later. During the last 4 h of treatment, 0 4 Hg/ml of colchicine (Merck, Darmstadt, Germany) were added. At the end of treatment, metaphase cells were dislodged by gently pipetting the overlaying medium and collected by centrifuging the suspension at 900 rev/min for 5 min. The cell pellet was suspended in 5 ml hypotonic buffer (10% sodium citrate) at 37?C for 10 min and fixed in ethanol/acetic acid (3/1). Fixed cells were heated at 89?C for 10 min in IM NaH2PO4 (pH 8) and stained with Giemsa (Korenberg & Freedlender, 1974). […] Chromium compounds and cell treatments.- Hexavalent chromium (Cr6+) was tested as K2Cr207 (potassium dichromate), K2CrO4 (potassium chromate) and Na2CrO4.4H20 (sodium chromate) (Mallinckrodt, St Louis, Mo., U.S.A.), as Na2Cr2O7.2H20 (sodium dichromate) (Riedel De Haen, Hannover, Germany), as CrO3 (chromic acid) (Merck, Darmstadt, Germany), and as CaCrO4 (cal- cium chromate) (BDH, Poole, England)."}, "CHO cell cultures [2]": {"system": "CHO cell cultures", "format": "cell-based, Chinese hamster", "method": "as §1"}, "BHK cells": {"system": "BHK cells", "conditions": "chronic exposure", "method": "as §1"}, "CHO cells [3]": {"system": "CHO cells", "assay": "CHO cell survival (macroscopic colonies)", "format": "cell-based, Chinese hamster", "conditions": "seeded in presence of Cr, treated up to 8th day", "method": "MATERIALS AND METHODS Cells.-Cultures of the established pseudo- diploid BHK21 Syrian hamster fibroblast line, and of the established pseudodiploid CHO Chinese hamster ovary fibroblast line were grown at 37?C as monolayers, in Eagle's minimal essential medium supplemented with 10% calf serum. Cultures in glass Petri dishes were maintained in a humidified 5% C02 atmosphere. […] Cell growth was estimated on the basis of the nucleic-acid content (RNA+ DNA) of each culture, deter- mined 5 days after seeding, when controls became confluent. […] Soluble nucleotides and RNA were measured by UV absorption at 260 nm, DNA was measured at 268 nm, with a Hitachi 200-20 double-beam spectrophotometer. […] After labelling, nucleotides and nucleic acids were extracted and determined as above, and the radioactivity of liquid samples (0-5 ml) of the different fractions was counted in a Packard Tri-Carb 2425 scintillation counter, using 10 ml of Bray's solution. As stated else- where (Levis et al., 1978a, b) the extraction procedure with PCA allows both quantitative determinations and radioactivity counting of different fractions (soluble nucleotides, RNA and DNA) obtained from the same culture. […] The medium was not changed until the 8th day, when the plates were stained with acetic gentian violet, and scored for survivors. All colonies visible to the naked eye were counted as survivors. […]"}, "CHO cell cultures [4]": {"system": "CHO cell cultures", "method": "as §1"}},
  "note": "Like-named read-outs stand apart in the source and are kept apart here.",
  "data": [
    {"molecule": "[Na+].[Na+].[O]=[Cr](=[O])([O-])[O][Cr](=[O])(=[O])[O-]", "note": "[Na2Cr2O7, sodium dichromate]", "values": [
      {"measurement": "increase of chromosome aberrations", "setting": "CHO cells [1]", "value": "about 10 fold"},
      {"measurement": "Cell growth (%)", "setting": "CHO cell cultures [2]", "value": 3, "unit": "%"},
      {"measurement": "RNA/DNA", "setting": "CHO cell cultures [2]", "value": "6-9"}
    ]},
    {"molecule": "O=S(=O)([O-])[O-].O=S(=O)([O-])[O-].[Cr+3].[K+]", "note": "[CrK(SO4)2, chromium potassium sulphate]", "values": [
      {"measurement": "cytotoxic action on cell growth", "setting": "BHK cells", "value": "weakly cytotoxic"},
      {"measurement": "Cell growth (%)", "setting": "CHO cell cultures [2]; 5 days in presence of compound, [Cr] 209.0 ug/ml", "value": 62, "unit": "%"},
      {"measurement": "RNA/DNA", "setting": "CHO cell cultures [2]; 5 days, [Cr] 209.0 ug/ml", "value": "1-4"}
    ]},
    {"molecule": "[Ca+2].[O]=[Cr](=[O])([O-])[O-]", "note": "[CaCrO4, calcium chromate]", "values": [
      {"measurement": "Cell growth (%)", "setting": "CHO cell cultures [2]", "value": 1, "unit": "%"},
      {"measurement": "RNA/DNA", "setting": "CHO cell cultures [2]", "value": 4.8}
    ]},
    {"molecule": "[Cl][Cr]([Cl])[Cl]", "note": "[CrCl3, chromium chloride]", "values": [
      {"measurement": "cytotoxic action on cell growth", "setting": "BHK cells; even at 300 tg/ml Cr3+ (maximum solubility in complete growth medium)", "value": "little or no cytotoxic action"},
      {"measurement": "Cell growth (%)", "setting": "CHO cell cultures [2]; 5 days in presence of compound, [Cr] 262.0 ug/ml", "value": 61, "unit": "%"}
    ]},
    {"molecule": "CC(=O)[O-].CC(=O)[O-].CC(=O)[O-].[Cr+3]", "note": "[Cr(COOCH3)3, chromium acetate]", "values": [
      {"measurement": "50% lethal dose (LD50)", "setting": "CHO cells [3]", "value": 150, "unit": "µg/mL"},
      {"measurement": "cytotoxic action on cell growth", "setting": "BHK cells", "value": "weakly cytotoxic"},
      {"measurement": "Cell growth (%)", "setting": "CHO cell cultures [2]; 5 days in presence of compound, [Cr] 312.0 ug/ml", "value": 1, "unit": "%"}
    ]},
    {"molecule": "[Na+].[Na+].[O]=[Cr](=[O])([O-])[O-]", "note": "[Na2CrO4, sodium chromate]", "values": [
      {"measurement": "Sister chromatid exchanges per chromosome", "setting": "CHO cell cultures [4]", "value": "059 + 0-20"},
      {"measurement": "Sister chromatid exchanges per metaphase", "setting": "CHO cell cultures [4]", "value": "10-62 + 0-33"},
      {"measurement": "Cell growth (%)", "setting": "CHO cell cultures [2]", "value": 6, "unit": "%"}
    ]},
    {"molecule": "[K+].[K+].[O]=[Cr](=[O])([O-])[O-]", "note": "[K2CrO4, potassium chromate]", "values": [
      {"measurement": "Sister chromatid exchanges per chromosome", "setting": "CHO cell cultures [4]", "value": "0.50 + 0-01"},
      {"measurement": "Sister chromatid exchanges per metaphase", "setting": "CHO cell cultures [4]", "value": "9-80 + 0-31"},
      {"measurement": "Cell growth (%)", "setting": "CHO cell cultures [2]", "value": 5, "unit": "%"}
    ]},
    {"molecule": "[K+].[K+].[O]=[Cr](=[O])([O-])[O][Cr](=[O])(=[O])[O-]", "note": "[K2Cr2O7, potassium dichromate]", "values": [
      {"measurement": "Cell growth (%)", "setting": "CHO cell cultures [2]", "value": 4, "unit": "%"}
    ]},
    {"molecule": "[O]=[Cr](=[O])=[O]", "note": "[CrO3, chromic acid]", "values": [
      {"measurement": "Cell growth (%)", "setting": "CHO cell cultures [2]", "value": 2, "unit": "%"}
    ]}
  ]
}
